Experimental findings from patent US11180494B2, “Substituted amino acids as integrin inhibitors” (Pliant Therapeutics, Inc., priority 2018, dated 2021) are described below.

Bounds are passed on as bounds.

The term IC50 denotes the midpoint of a concentration-inhibition curve.

Chain of human integrin αvβ6 (P06756 31-992): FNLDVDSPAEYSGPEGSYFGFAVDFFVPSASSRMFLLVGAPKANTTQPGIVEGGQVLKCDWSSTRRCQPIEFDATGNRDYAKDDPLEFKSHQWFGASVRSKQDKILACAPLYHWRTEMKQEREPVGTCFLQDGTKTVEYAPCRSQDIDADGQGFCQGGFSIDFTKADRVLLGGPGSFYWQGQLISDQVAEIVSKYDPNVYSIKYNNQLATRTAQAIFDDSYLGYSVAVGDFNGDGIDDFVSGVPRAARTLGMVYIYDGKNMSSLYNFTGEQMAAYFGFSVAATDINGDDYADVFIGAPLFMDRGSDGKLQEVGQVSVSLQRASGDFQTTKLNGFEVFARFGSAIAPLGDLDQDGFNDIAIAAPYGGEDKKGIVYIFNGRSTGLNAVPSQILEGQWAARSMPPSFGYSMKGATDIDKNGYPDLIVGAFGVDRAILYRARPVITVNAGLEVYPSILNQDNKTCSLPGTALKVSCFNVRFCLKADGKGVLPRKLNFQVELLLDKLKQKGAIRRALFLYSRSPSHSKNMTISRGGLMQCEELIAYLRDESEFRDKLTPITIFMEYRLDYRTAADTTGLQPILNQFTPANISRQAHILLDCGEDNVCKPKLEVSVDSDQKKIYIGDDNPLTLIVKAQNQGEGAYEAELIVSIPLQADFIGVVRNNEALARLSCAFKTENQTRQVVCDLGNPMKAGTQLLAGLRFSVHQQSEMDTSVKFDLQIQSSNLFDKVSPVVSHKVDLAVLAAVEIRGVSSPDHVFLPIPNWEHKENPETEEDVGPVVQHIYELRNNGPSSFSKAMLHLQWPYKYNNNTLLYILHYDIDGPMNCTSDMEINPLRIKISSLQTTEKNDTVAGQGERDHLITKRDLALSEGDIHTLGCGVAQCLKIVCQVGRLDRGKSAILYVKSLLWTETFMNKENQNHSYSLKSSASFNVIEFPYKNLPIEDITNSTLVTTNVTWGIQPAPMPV
Chain of human integrin αvβ6 (P18564 22-707): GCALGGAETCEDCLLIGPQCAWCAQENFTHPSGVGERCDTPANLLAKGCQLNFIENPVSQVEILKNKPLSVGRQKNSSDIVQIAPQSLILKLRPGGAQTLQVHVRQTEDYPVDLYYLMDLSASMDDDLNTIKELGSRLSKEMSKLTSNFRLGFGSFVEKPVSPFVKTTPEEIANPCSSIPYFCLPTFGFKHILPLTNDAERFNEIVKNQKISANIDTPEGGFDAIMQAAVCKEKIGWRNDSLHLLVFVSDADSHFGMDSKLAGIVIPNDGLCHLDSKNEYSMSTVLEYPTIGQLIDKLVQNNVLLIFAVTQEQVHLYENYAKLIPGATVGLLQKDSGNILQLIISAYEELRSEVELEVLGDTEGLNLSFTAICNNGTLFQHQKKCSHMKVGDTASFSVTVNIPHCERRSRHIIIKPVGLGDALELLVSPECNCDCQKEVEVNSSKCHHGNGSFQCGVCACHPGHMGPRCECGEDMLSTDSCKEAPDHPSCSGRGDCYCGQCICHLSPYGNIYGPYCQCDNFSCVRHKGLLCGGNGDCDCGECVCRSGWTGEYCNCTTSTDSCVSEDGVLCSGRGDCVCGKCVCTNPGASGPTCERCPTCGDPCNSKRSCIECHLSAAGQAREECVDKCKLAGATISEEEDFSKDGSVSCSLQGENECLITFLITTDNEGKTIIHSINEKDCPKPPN

The first assay concerns the target human integrin αvβ6 (Homo sapiens (Human), UniProt P06756+P18564). The assay can be described thus: Proximity-based integrin receptor binding assay (ALPHASCREEN) for inhibitor potency. The conditions noted are these: inhibition of binding of TGF-b1 LAP to human integrin αvβ6; values given in ranges. The essentials:
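AlphaScreen: integrin, compound, TGF-b1 LAP, biotinylated anti-LAP antibody and acceptor beads incubated 2 hours, then streptavidin donor beads 30 minutes, at room temperature in 50 mM Tris-HCl pH 7.5, 0.1% BSA, 1 mM CaCl2 and MgCl2. Excitation 680 nm, emission 520-620 nm; IC50 by four-parameter logistic fit.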
(Alpha assays give light when donor and acceptor beads are brought close together.)
Take `O=C(NC(CCO[C@H]1C[C@H](CCc2ccc3c(n2)NCCC3)C1)C(=O)O)c1cccc(F)c1Cl` (stereo partly drawn) [Compound 60, N-(2-chloro-3-fluorobenzoyl)-O-(trans-3-(2-(5,6,7,8-tetrahydro-1,8-naphthyridin-2-yl)ethyl)cyclobutyl)homoserine]: the IC50 lay within 50 to 250 nM.
On the same count and under the same terms, next, `O=C(N[C@@H](CCO[C@H]1C[C@H](CCc2ccc3c(n2)NCCC3)C1)C(=O)O)OC1CCCCC1` [Compound 131, N-((cyclohexyloxy)carbonyl)-O-(trans-3-(2-(5,6,7,8-tetrahydro-1,8-naphthyridin-2-yl)ethyl)cyclobutyl)homoserine]: less than 50 nM.
On the same count and under the same terms, in the case of `O=C(NC(CCOCCCCc1ccc2c(n1)NCCC2)C(=O)O)c1ccccc1` (stereo not shown) [Compound 6, N-benzoyl-O-(4-(5,6,7,8-tetrahydro-1,8-naphthyridin-2-yl)butyl)homoserine] it was 250 to 1000 nM; in that of `O=C(N[C@@H](CCO[C@H]1C[C@H](CCc2ccc3c(n2)NCCC3)C1)C(=O)O)C1CCCc2cn[nH]c21` (relative stereo) [Compound 177, O-(trans-3-(2-(5,6,7,8-tetrahydro-1,8-naphthyridin-2-yl)ethyl)cyclobutyl)-N-(4,5,6,7-tetrahydro-1H-indazole-7-carbonyl)homoserine], 50 to 250 nM; in that of `O=C(O)C(CCO[C@H]1C[C@H](CCc2ccc3c(n2)NCCC3)C1)NC(=O)[C@H](O)c1ccccc1` (stereo partly drawn) [Compound 80, N—((R)-2-hydroxy-2-phenylacetyl)-O-(trans-3-(2-(5,6,7,8-tetrahydro-1,8-naphthyridin-2-yl)ethyl)cyclobutyl)homoserine], 50 to 250 nM.
Same read-out and setting: in the case of `O=C(N[C@@H](CCO[C@H]1C[C@H](CCc2ccc3c(n2)NCCC3)C1)C(=O)O)c1cccc2ncccc12` [Compound 51, N-(quinoline-5-carbonyl)-O-(trans-3-(2-(5,6,7,8-tetrahydro-1,8-naphthyridin-2-yl)ethyl)cyclobutyl)homoserine] it was less than 50 nM; in that of `Cn1cc2ccc(C(=O)N[C@@H](CCO[C@H]3C[C@H](CCc4ccc5c(n4)NCCC5)C3)C(=O)O)cc2n1` [Compound 39, N-(2-methyl-2H-indazole-6-carbonyl)-O-(trans-3-(2-(5,6,7,8-tetrahydro-1,8-naphthyridin-2-yl)ethyl)cyclobutyl)homoserine], 50 to 250 nM; in that of `CC(C)(Cc1ccccc1)C(=O)NC(CCO[C@H]1C[C@H](CCc2ccc3c(n2)NCCC3)C1)C(=O)O` (stereo partly drawn) [Compound 100, N-(2,2-dimethyl-3-phenylpropanoyl)-O-(trans-3-(2-(5,6,7,8-tetrahydro-1,8-naphthyridin-2-yl)ethyl)cyclobutyl)homoserine], 50 to 250 nM.
`O=C(O)C(CCO[C@H]1C[C@@H](CCc2ccc3c(n2)NCCC3)C1)NC(=O)[C@@H](CO)c1ccccc1` (stereo partly drawn) [Compound 71, N—((R)-3-hydroxy-2-phenylpropanoyl)-O-(cis-3-(2-(5,6,7,8-tetrahydro-1,8-naphthyridin-2-yl)ethyl)cyclobutyl)homoserine]: the IC50 is more than 1000 nM.
On the same count and under the same terms, in the case of `O=C(N[C@@H](CCO[C@H]1C[C@H](CCc2ccc3c(n2)NCCC3)C1)C(=O)O)O[C@H]1CCNC1` [Compound 134, N—((((S)-pyrrolidin-3-yl)oxy)carbonyl)-O-(trans-3-(2-(5,6,7,8-tetrahydro-1,8-naphthyridin-2-yl)ethyl)cyclobutyl)homoserine] it was 50 to 250 nM; in that of `CC(C)COC(=O)N[C@@H](CCO[C@H]1C[C@H](CCc2ccc3c(n2)NCCC3)C1)C(=O)O` [Compound 132, N-(isobutoxycarbonyl)-O-(trans-3-(2-(5,6,7,8-tetrahydro-1,8-naphthyridin-2-yl)ethyl)cyclobutyl)homoserine], 50 to 250 nM.
With `CC(C)(C)OC(=O)N1CC(C#Cc2ccccc2)(OC(=O)N[C@@H](CCO[C@H]2C[C@H](CCc3ccc4c(n3)NCCC4)C2)C(=O)O)C1` [Compound 159, N-(((1-(tert-butoxycarbonyl)-3-(phenylethynyl)azetidin-3-yl)oxy)carbonyl)-O-(trans-3-(2-(5,6,7,8-tetrahydro-1,8-naphthyridin-2-yl)ethyl)cyclobutyl)homoserine], the IC50 is less than 50 nM.
Still for that read-out and setting: in the case of `O=C(NC(CCO[C@H]1C[C@H](CCc2ccc3c(n2)NCCC3)C1)C(=O)O)c1ccc(C2CC2)cc1` (stereo partly drawn) [Compound 57, N-(4-cyclopropylbenzoyl)-O-(trans-3-(2-(5,6,7,8-tetrahydro-, 8-naphthyridin-2-yl)ethyl)cyclobutyl)homoserine] it was 250 to 1000 nM; in that of `CCC(CC(F)F)C(=O)NC(CCO[C@H]1C[C@H](CCc2ccc3c(n2)NCCC3)C1)C(=O)O` (single isomer, unassigned) [Example 162b, N-(-2-ethyl-4,4-difluorobutanoyl)-O-(trans-3-(2-(5,6,7,8-tetrahydro-1,8-naphthyridin-2-yl)ethyl)cyclobutyl)homoserine], less than 50 nM; in that of `CC(C)(C)c1ccnc(N[C@@H](CCO[C@H]2C[C@H](CCc3ccc4c(n3)NCCC4)C2)C(=O)O)n1` [Example 226, N-(4-(tert-butyl)pyrimidin-2-yl)-O-(trans-3-(2-(5,6,7,8-tetrahydro-1,8-naphthyridin-2-yl)ethyl)cyclobutyl)homoserine], 250 to 1000 nM.
The same measure, in the same setting: next, `O=C(N[C@@H](CCO[C@H]1C[C@H](CCc2ccc3c(n2)NCCC3)C1)C(=O)O)c1ccc2cccnc2c1` [Compound 53, N-(quinoline-7-carbonyl)-O-(trans-3-(2-(5,6,7,8-tetrahydro-1,8-naphthyridin-2-yl)ethyl)cyclobutyl)homoserine]: 50 to 250 nM; `Cn1cc2cc(C(=O)N[C@@H](CCO[C@H]3C[C@H](CCc4ccc5c(n4)NCCC5)C3)C(=O)O)ccc2n1` [Compound 40, N-(2-methyl-2H-indazole-5-carbonyl)-O-(trans-3-(2-(5,6,7,8-tetrahydro-1,8-naphthyridin-2-yl)ethyl)cyclobutyl)homoserine]: 50 to 250 nM.
Still for that read-out and setting: in the case of `CC(C)(C)COC(=O)N[C@@H](CCO[C@H]1C[C@H](CCc2ccc3c(n2)NCCC3)C1)C(=O)O` [Compound 112, N-((neopentyloxy)carbonyl)-O-(trans-3-(2-(5,6,7,8-tetrahydro-1,8-naphthyridin-2-yl)ethyl)cyclobutyl)homoserine] it was 50 to 250 nM.
For `O=C(NC(CCO[C@H]1C[C@H](CCc2ccc3c(n2)NCCC3)C1)C(=O)O)c1ccncc1` (stereo partly drawn) [Compound 37, N-isonicotinoyl-O-(trans-3-(2-(5,6,7,8-tetrahydro-1,8-naphthyridin-2-yl)ethyl)cyclobutyl)homoserine], the concentration for half-maximal inhibition (IC50) is less than 50 nM.
On the same count and under the same terms, next, `CC(C)(C)OC(=O)NC(CCO[C@H]1C[C@H](CCc2ccc3c(n2)NCCC3)C1)C(=O)O` (stereo partly drawn) [Compound 86, N-(tert-butoxycarbonyl)-O-(trans-3-(2-(5,6,7,8-tetrahydro-1,8-naphthyridin-2-yl)ethyl)cyclobutyl)homoserine]: 250 to 1000 nM; `CC(C)(C(=O)NC(CCO[C@H]1C[C@H](CCc2ccc3c(n2)NCCC3)C1)C(=O)O)c1ccc(F)cc1` (stereo partly drawn) [Compound 87, N-(2-(4-fluorophenyl)-2-methylpropanoyl)-O-(trans-3-(2-(5,6,7,8-tetrahydro-1,8-naphthyridin-2-yl)ethyl)cyclobutyl)homoserine]: 250 to 1000 nM; `CCC(CC)(C(=O)N[C@@H](CCO[C@H]1C[C@H](CCc2ccc3c(n2)NCCC3)C1)C(=O)O)c1ccccc1` [Compound 169, N-(2-ethyl-2-phenylbutanoyl)-O-(trans-3-(2-(5,6,7,8-tetrahydro-1,8-naphthyridin-2-yl)ethyl)cyclobutyl)homoserine]: 50 to 250 nM.
On the same count and under the same terms, in the case of `CC(C)(C)OC(=O)NCC1(C(=O)N[C@@H](CCO[C@H]2C[C@@H](CCc3ccc4c(n3)NCCC4)C2)C(=O)O)CCOCC1` [Compound 184, N-(4-(((tert-butoxycarbonyl)amino)methyl)tetrahydro-2H-pyran-4-carbonyl)-O-(cis-3-(2-(5,6,7,8-tetrahydro-1,8-naphthyridin-2-yl)ethyl)cyclobutyl)homoserine] it was less than 50 nM; in that of `CC1(OC(=O)N[C@@H](CCO[C@H]2C[C@H](CCc3ccc4c(n3)NCCC4)C2)C(=O)O)CCC1` [Compound 114, N-((1-methylcyclobutoxy)carbonyl)-O-(trans-3-(2-(5,6,7,8-tetrahydro-1,8-naphthyridin-2-yl)ethyl)cyclobutyl)homoserine], less than 50 nM.
With `CCC(CC)CC(=O)NC(CCO[C@H]1C[C@H](CCc2ccc3c(n2)NCCC3)C1)C(=O)O` (stereo partly drawn) [Compound 63, N-(3-ethylpentanoyl)-O-(trans-3-(2-(5,6,7,8-tetrahydro-1,8-naphthyridin-2-yl)ethyl)cyclobutyl)homoserine], the IC50 is less than 50 nM.
Same read-out and setting: next, `CC1(C(=O)N[C@@H](CCO[C@H]2C[C@@H](CCc3ccc4c(n3)NCCC4)C2)C(=O)O)CCOCC1` [Compound 179, N-(4-methyltetrahydro-2H-pyran-4-carbonyl)-O-(cis-3-(2-(5,6,7,8-tetrahydro-1,8-naphthyridin-2-yl)ethyl)cyclobutyl) homoserine]: 50 to 250 nM; `CC1(OC(=O)N[C@@H](CCO[C@H]2C[C@H](CCc3ccc4c(n3)NCCC4)C2)C(=O)O)CNC1` [Compound 130, N-(((3-methylazetidin-3-yl)oxy)carbonyl)-O-(trans-3-(2-(5,6,7,8-tetrahydro-1,8-naphthyridin-2-yl)ethyl)cyclobutyl)homoserine]: 50 to 250 nM.

The assay is the same for the next values; noted with them: inhibition of binding of TGF-b1 LAP to human integrin αvβ6; values given in ranges; listed as 65**.
As to `O=C(NC(CCO[C@H]1C[C@H](CCc2ccc3c(n2)NCCC3)C1)C(=O)O)c1cccc(-c2cncs2)c1` (stereo partly drawn) [Compound 65, O-(trans-3-(2-(5,6,7,8-tetrahydro-1,8-naphthyridin-2-yl)ethyl)cyclobutyl)-N-(3-(thiazol-5-yl)benzoyl)homoserine], the IC50 is less than 50 nM.
